Data taken from patent US6924302B2, “Substituted triazole diamine derivatives as kinase inhibitors” (Ortho McNeil Pharmaceutical, Inc., priority 2000, dated 2005).
Where two headings read alike, the source gives them in different places.

Columns and labels:
Insulin Receptor Kinase = Insulin Receptor Kinase (Homo sapiens, UniProt P06213); test: Kinase Selectivity Assay Insulin Receptor Kinase; format: biochemical; conditions: Kinase Selectivity, Tables 2a-2k; read-out: Insulin R Kinase IC50
Experimental: (§1) Assays to test compound inhibition of other kinases were preformed using methods that measure the amount of phosphorylation of a biotinylated peptide substrate. Biotinylated peptide substrates were selected from the literature as appropriate for the enzyme being evaluated. […] Assay conditions vary slightly for each protein kinase, for example, insulin receptor kinase requires 10 mM MnCl2 for activity and Calmodulin-dependent protein kinase requires calmodulin and 10 mM CaCl2. These assay conditions are known in the art. The reaction mixture was dispensed into the wells of a streptavidin coated Flashplate and 1 μl drug stock in 100% DMSO was added to a 100 μl reaction volume resulting in a final concentration of 1% DMSO on the reaction. Enzyme was diluted in 50 mM Tris-HCl pH=8.0, 0.1% BSA and add to each well. The reaction was incubated for one hour at 30° C. in the presence of compound. After one hour the reaction mix was aspirated from the plate and the plate was washed with PBS containing 100 mM EDTA. The plate was read on a scintillation counter to determine ^33P-γ-ATP incorporated into the immobilized peptide. Test compounds were assayed in duplicate at 8 concentrations [100 uM, 10 uM, 1 uM, 100 nM, 10 nM, 1 nM, 100 pM, 10 pM]. A maximum and minimum signal for the assay was determined on each plate. The IC50 was calculated from the dose response curve of the percent inhibition of the maximum signal in the assay according to the formula [max signal—background/test compound signal—background (100)=% inhibition] by graphing the percent inhibition against the log concentration of test compound. Known inhibitor compounds appropriate for the kinase being assayed were also included on each plate.
(§2) CDK2 in complex with cyclin A is commercially available (Upstate Biotech, Lake Placid, N.Y.). The CDK4 complex was composed of a mouse CDK4 protein and a mouse Cyclin D1 protein (The mouse CDK4 protein was genetically fused to an N-terminal Flag-epitope tag and the mouse Cyclin D1 protein was fused with an N-terminal AU-1 epitope tag. The genes encoding these proteins were transferred to commercially available baculoviral vectors. The recombinant CDK4/D1 complex was then made by co-infecting commercially available insect cells with viruses carrying these two constructs). […] ERK-1 protein (Discontinued from Calbiochem). EGFR (epidermal growth factor receptor) is purified from human A431 cell membranes (Sigma, St. Louis, Mo., Cat.# E3641).

CDK1:Cyclin-B = target: T1, CDK1:Cyclin-B (Homo sapiens, UniProt P06493); test: CDK1 Screening Assay; format: biochemical; conditions: read-out: CDK1 IC50
T1 construct: purchased New England Biolabs 6020; host or cells: insect cells
T1 sequence (P06493 whole entry): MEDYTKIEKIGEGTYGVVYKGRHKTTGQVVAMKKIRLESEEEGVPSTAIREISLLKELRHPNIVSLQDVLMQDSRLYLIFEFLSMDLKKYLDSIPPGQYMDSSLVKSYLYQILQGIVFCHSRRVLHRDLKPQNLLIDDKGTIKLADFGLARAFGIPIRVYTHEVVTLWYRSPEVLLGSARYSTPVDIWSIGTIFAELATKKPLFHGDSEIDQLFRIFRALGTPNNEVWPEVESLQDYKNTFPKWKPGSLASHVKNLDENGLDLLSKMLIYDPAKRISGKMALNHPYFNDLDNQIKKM
T1 sequence (P14635 whole entry partner): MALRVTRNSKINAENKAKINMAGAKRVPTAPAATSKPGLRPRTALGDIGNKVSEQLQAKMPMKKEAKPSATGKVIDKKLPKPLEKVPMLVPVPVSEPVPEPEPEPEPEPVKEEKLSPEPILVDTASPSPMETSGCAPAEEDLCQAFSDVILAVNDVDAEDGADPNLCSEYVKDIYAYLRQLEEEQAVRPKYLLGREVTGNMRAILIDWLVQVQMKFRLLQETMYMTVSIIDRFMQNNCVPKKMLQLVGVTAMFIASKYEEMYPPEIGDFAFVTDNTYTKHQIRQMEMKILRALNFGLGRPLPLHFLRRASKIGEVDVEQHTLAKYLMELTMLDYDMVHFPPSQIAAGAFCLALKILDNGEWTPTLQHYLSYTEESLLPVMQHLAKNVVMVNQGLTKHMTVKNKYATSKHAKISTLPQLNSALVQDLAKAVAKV
Summary of the method: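 Human CDK1:cyclin-B (30 ng/well) with biotinylated histone-H1 peptide and ^33P-γ-ATP, 1 h at 30° C, 1% DMSO, on streptavidin FlashPlate; incorporation read by scintillation.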

[1] = target: T2, PDGF-R (platelet derived growth factor receptor) beta subunit kinase domain (Homo sapiens, UniProt P09619); test: Kinase Selectivity Assay PDGF-R; format: biochemical; conditions: Kinase Selectivity, Tables 2a-2k; read-out: PDGF-R kinase IC50
T2 construct: nucleotides 1874-3507 of the human PDGF-R beta subunit kinase domain; polyhistidine (N)
T2 sequence (P09619 564-1106): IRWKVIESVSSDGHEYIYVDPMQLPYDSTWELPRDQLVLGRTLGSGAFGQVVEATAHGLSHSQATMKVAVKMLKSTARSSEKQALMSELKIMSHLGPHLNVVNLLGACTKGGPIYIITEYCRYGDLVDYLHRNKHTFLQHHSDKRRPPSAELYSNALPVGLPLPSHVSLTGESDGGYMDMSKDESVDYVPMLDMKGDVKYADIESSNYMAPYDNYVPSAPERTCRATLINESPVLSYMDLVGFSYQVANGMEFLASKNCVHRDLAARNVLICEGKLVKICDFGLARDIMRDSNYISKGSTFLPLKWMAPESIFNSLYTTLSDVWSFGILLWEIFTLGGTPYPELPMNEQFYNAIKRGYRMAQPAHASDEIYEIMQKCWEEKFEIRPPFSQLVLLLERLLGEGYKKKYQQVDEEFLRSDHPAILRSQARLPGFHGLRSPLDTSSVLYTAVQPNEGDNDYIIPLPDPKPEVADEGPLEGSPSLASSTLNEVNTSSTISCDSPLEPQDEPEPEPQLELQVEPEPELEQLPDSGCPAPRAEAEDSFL
Experimental: as §1, §2

[2] = target: T3, Calmodulin Kinase (calmodulin-dependent protein kinase 2) (Rattus norvegicus, UniProt P11275); test: Kinase Selectivity Assay Calmodulin Kinase; format: biochemical; conditions: Kinase Selectivity, Tables 2a-2k; read-out: Calmodulin Kinase 2 IC50
T3 construct: a truncated version of the alpha subunit of the rat protein; purchased New England Biolabs 6060; host or cells: insect cells
Experimental: as §1, §2

[3] = target: T4, Casein Kinase 1 (CK1 delta isoform) (Rattus norvegicus, UniProt Q06486); test: Kinase Selectivity Assay Casein Kinase 1; format: biochemical; conditions: Tables 2a-2k, read-out: Caseine Kinase 1 IC50
T4 construct: a truncation at amino acid 318 of the C-terminal portion of the rat CK1 delta isoform; purchased New England Biolabs 6030; host or cells: E. coli
T4 sequence (Q06486 1-317): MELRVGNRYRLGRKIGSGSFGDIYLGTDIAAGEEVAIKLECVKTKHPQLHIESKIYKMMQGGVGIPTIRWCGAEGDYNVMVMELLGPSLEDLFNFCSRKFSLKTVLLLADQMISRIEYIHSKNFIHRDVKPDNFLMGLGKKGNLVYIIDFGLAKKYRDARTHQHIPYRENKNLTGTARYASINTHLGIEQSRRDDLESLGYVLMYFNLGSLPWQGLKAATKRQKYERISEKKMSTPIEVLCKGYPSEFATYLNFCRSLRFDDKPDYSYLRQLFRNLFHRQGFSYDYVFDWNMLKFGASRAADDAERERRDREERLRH
Experimental: as §1, §2

[4] = target: T5, Glycogen Synthase Kinase-3 (beta isoform) (Oryctolagus cuniculus, UniProt G1T8E2); test: Kinase Selectivity Assay Glycogen Synthase Kinase-3; format: biochemical, rabbit; conditions: Kinase Selectivity, Tables 2a-2k; read-out: GSK-3 IC50
T5 construct: purchased New England Biolabs 6040; host or cells: E. coli
T5 sequence (G1T8E2 1-432): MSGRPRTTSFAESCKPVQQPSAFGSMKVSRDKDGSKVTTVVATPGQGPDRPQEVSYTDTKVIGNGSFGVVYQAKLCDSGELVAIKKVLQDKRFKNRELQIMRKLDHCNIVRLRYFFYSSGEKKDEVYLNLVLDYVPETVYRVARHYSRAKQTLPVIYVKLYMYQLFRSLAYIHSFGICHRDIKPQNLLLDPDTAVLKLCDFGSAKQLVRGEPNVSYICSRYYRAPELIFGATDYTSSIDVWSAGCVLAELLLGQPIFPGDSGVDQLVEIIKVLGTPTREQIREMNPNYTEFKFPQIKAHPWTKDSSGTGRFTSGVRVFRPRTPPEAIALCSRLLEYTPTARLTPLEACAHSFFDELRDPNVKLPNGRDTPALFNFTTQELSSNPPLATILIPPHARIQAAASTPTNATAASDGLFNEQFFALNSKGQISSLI
Experimental: as §1, §2

[5] = target: T6, Casein Kinase 2 (alpha and beta subunits) (Homo sapiens, UniProt P68400); test: Kinase Selectivity Assay Casein Kinase 2; format: biochemical; conditions: Kinase Selectivity, Tables 2a-2k; read-out: Caseine Kinase 2 IC50
T6 construct: purchased New England Biolabs 6010; host or cells: E. coli
T6 sequence (P68400 whole entry): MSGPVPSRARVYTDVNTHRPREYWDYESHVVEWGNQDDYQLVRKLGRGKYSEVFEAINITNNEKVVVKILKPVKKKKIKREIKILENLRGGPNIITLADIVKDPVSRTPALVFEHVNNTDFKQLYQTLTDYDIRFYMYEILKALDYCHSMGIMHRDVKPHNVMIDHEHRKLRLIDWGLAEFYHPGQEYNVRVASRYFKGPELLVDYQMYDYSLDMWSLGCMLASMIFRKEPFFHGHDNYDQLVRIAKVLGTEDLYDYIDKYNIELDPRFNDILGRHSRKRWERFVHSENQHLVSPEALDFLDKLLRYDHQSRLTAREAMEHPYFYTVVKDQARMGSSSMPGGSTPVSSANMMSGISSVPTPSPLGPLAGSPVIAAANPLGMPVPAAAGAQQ
T6 sequence (P67870 whole entry partner): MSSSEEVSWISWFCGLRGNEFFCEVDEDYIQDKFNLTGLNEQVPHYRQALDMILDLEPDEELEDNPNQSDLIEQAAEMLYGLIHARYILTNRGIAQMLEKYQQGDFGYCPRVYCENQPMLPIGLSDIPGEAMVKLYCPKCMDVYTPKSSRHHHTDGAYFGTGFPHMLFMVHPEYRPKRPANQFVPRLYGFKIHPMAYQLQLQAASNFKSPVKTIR
Experimental: as §1, §2

[6] = target: T7, HER2 (human epidermal growth factor receptor-2) (Homo sapiens, UniProt P04626); test: Kinase Selectivity Assay HER2; format: biochemical
T7 construct: begins at amino acid 676 followed by the remainder of the HER2 cytoplasmic domain; polyhistidine (N)
T7 sequence (P04626 676-1255 limits assumed): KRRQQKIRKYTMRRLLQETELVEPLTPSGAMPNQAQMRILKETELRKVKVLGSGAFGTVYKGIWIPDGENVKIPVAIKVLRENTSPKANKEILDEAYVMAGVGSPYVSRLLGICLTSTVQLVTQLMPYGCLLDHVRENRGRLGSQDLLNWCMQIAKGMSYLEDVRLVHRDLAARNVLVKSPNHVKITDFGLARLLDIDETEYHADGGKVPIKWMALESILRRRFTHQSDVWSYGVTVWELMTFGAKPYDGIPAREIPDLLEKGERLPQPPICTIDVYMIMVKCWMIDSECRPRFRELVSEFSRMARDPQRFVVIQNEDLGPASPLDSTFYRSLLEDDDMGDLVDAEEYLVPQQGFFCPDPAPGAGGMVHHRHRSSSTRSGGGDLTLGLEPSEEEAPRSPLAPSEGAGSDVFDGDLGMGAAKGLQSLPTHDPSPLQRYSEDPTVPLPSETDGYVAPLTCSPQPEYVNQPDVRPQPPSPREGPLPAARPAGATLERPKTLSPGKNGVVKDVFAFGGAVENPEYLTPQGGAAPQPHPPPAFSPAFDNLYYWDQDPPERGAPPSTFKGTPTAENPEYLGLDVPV
Summary of the method: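 Biotinylated peptide phosphorylation measured as ^33P-γ-ATP incorporation on streptavidin plates after 1 h at 30° C, 1% DMSO final, enzyme in 50 mM Tris-HCl pH 8.0, 0.1% BSA. Compounds in duplicate at 8 concentrations, 100 uM to 10 pM. IC50 from percent inhibition versus log concentration.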

Protein Kinase A = target: T8, Protein Kinase A (Bos taurus, UniProt P00517); test: Kinase Selectivity Assay Protein Kinase A; format: biochemical, bovine; conditions: Kinase Selectivity, Tables 2a-2k; read-out: PKA IC50
T8 construct: purified from bovine heart; purchased Upstate Biotech 14-114; host or cells: bovine heart
Experimental: as §1, §2

FGF-R2 = FGF-R2 (Homo sapiens, UniProt P21802); test: Kinase Selectivity Assay FGF-R2; format: biochemical; conditions: Tables 2a-2k
Chain of FGF-R2 (P21802 22-821, species assumed): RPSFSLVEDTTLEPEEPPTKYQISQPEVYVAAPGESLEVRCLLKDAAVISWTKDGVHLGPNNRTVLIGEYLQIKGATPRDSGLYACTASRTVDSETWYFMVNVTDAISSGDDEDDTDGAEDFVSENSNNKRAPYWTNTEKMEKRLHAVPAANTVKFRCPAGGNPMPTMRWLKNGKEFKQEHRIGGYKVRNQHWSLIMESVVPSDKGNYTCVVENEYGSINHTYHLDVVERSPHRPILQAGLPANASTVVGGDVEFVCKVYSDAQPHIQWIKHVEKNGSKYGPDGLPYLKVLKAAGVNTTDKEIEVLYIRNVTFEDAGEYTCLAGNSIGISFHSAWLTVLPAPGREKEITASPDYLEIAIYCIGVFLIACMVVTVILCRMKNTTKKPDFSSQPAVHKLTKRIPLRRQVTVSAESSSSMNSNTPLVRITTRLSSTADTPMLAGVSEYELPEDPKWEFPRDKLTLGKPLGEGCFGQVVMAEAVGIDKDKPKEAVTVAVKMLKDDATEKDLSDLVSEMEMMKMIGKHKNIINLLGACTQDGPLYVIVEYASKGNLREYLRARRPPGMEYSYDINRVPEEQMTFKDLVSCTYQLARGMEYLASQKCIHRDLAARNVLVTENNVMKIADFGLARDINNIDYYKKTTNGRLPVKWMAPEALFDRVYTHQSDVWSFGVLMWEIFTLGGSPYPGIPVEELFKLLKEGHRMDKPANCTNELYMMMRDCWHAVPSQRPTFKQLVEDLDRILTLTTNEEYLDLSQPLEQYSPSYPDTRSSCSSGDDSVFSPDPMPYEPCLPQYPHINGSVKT
Experimental: as §1

[7] = target: T9, MAP Kinase (ERK-2 isoform) (Rattus norvegicus, UniProt P63086); test: Kinase Selectivity Assay MAP Kinase (ERK-2); format: biochemical; conditions: Kinase Selectivity, Tables 2a-2k; read-out: ERK 2 IC50
T9 construct: polyhistidine (N); host or cells: E. coli
T9 sequence (P63086 whole entry, canonical isoform): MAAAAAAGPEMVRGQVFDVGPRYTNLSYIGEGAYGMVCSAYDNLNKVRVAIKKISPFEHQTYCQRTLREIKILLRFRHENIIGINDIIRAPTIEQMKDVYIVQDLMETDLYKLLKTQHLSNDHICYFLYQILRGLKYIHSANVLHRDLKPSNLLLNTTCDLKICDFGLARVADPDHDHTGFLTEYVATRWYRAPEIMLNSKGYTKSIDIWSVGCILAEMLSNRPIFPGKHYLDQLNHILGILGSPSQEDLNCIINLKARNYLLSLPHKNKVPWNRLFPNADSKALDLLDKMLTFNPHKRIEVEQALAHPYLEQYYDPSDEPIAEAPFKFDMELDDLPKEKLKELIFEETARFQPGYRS
Experimental: as §1, §2

[8] = test system: HeLa cervical adenocarcinoma; test: Inhibition of Cell Proliferation (14C-thymidine incorporation), HeLa; format: cell-based; conditions: Homo sapiens, HeLa cell line
Experimental: (§3) The ability of a test compound to inhibit the proliferation of cell growth was determined by measuring incorporation of ^14C-labelled thymidine into newly synthesized DNA within the cells. This method was used on cell lines derived from carcinomas originating from several tissues such as HeLa cervical adenocarcinoma (American Type Culture Collection (ATCC), Virginia, Cat. #CCL-2), A375 malignant melanoma (ATCC CRL-1619), SK-OV-3 ovarian adenocarcinoma (ATCC HTB-77) HCT-116 colon carcinoma (CCL-247), PC-3 prostate adenocarcinoma (ATCC CRL-1435), and MDA-MB-231 (Xenogen Corp.) In this way the effect of a compound on cell growth of cells with many different phenotypes can be determined. Cells were trypsinized and counted and 3000-8000 cells were added to each well of a 96-well CytoStar tissue culture treated scintillating microplate (Amersham #RPNQ0160) in complete medium in a volume of 100 μl. Cells were incubated for 24 hours in complete medium at 37° C. in an atmosphere containing 5% CO2. Next, 1 μl of test compound in 100% DMSO was added to the wells of the plate. DMSO only was added to control wells. Cells were incubated for 24 more hours in complete medium at 37° C. in an atmosphere containing 5% CO2. Methyl ^14C-thymidine 56 mCi/mmol (NEN #NEC568 or Amersham #CFA532) was diluted in complete medium and 0.2 uCi/well was added to each well of the CytoStar plate in a volume of 20 μl. The plate was incubated for 24 hours at 37° C. plus 5% CO2 in drug plus ^14C-thymidine. The contents of the plate were discarded into a ^14C radioactive waste container by inverting the plate and the plate was washed twice with 200 μl PBS. 200 μl of PBS is added to each well. The top of the plate was sealed with a transparent plate sealer and a white plate backing sealer (Packard #6005199) was applied to the bottom of the plate. The degree of methyl ^14C-thymidine incorporation was quantified on a Packard Top Count.

A375 malignant melanoma = test: Inhibition of Cell Proliferation (14C-thymidine incorporation), A375; format: cell-based; conditions: Homo sapiens, A-375, A375 cell line
Experimental: as §3

HCT-116 colon carcinoma = test: Inhibition of Cell Proliferation (14C-thymidine incorporation), HCT-116; format: cell-based; conditions: Homo sapiens, HCT-116 cell line
Experimental: as §3

[9] = target: T10, CDK2 in complex with cyclin A (Homo sapiens, UniProt P24941); test: Kinase Selectivity Assay CDK2; format: biochemical; conditions: Table 1
T10 construct: purchased Upstate Biotech
Experimental: as §1, §2

[10] = Kinase Selectivity, Tables 2a-2k, read-out: HER2 Kinase IC50

Chain of Insulin Receptor Kinase (P06213 980-1352): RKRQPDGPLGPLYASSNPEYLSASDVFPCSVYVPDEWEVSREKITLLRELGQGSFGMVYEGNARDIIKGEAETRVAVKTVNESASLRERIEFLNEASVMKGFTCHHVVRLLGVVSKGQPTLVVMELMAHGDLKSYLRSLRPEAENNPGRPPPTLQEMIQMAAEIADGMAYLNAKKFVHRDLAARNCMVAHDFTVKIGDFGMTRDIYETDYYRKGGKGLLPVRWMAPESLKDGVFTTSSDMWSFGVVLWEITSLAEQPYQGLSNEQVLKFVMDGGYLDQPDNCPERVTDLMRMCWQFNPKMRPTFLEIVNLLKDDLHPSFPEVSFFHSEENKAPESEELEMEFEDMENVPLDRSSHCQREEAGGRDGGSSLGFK

SMILES | IC50 (Insulin Receptor Kinase) | IC50 (CDK1:Cyclin-B; Kinase Selectivity, Tables 2a-2k) | IC50 (CDK1:Cyclin-B; Table 1) | IC50 [1] | IC50 [2] | IC50 [3] | IC50 [4] | IC50 [5] | IC50 [6, 10] | IC50 ([6]; Table 1, read-out: HER2 IC50) | IC50 (Protein Kinase A) | IC50 (FGF-R2) | IC50 [7] | IC50 [8] | IC50 (A375 malignant melanoma) | IC50 (HCT-116 colon carcinoma) | IC50 [9]
Nc1ccc(F)c(C(=O)n2nc(Nc3ccc(S(N)(=O)=O)cc3)nc2N)c1F [Cpd 55, 4-[[5-amino-1-(3-amino-2,6-difluorobenzoyl)-1H-1,2,4-triazol-3-yl]amino]-benzenesulfonamide] | > 100000 nM | 20 nM | 22 nM | 16200 nM | > 100000 nM | 9600 nM | 40 nM | > 100000 nM | 2190 nM | 2190 nM | > 100000 nM | 478 nM | 12900 nM |  |  |  | 
Cc1ccc(F)c(C(=O)n2nc(Nc3ccc(S(=O)(=O)NCCN(C)C)cc3)nc2N)c1F [Cpd 105] | 9850 nM |  |  | 2200 nM | > 100000 nM | 4490 nM | 82 nM | > 100000 nM |  |  | > 100000 nM | 142 nM | 18200 nM | 626 nM | 652 nM | 320 nM | 2 nM
Cc1cc(C)c(C(=O)n2nc(Nc3ccc(S(=O)(=O)NCCN(C)C)cc3)nc2N)s1 [Cpd 107] | 311 nM |  |  | 143 nM | 3430 nM | 412 nM | 15 nM | > 10000 nM |  |  | > 100000 nM | 235 nM | > 10000 nM | 177 nM | 113 nM | 95 nM | 2 nM
CCc1ccc(C(=O)n2nc(Nc3ccc(NS(C)(=O)=O)cc3)nc2N)s1 [Cpd 110] | 53 nM |  |  | 285 nM | > 100000 nM | 192 nM | 8 nM | > 5000 nM | 6 nM | 5.5 nM | > 100000 nM | 153 nM | 8750 nM | 237 nM | 239 nM | 187 nM | 5 nM
